Measured values reported in patent publication US20240158370A1, “CK1 alpha AND DUAL CK1 alpha / GSPT1 DEGRADING COMPOUNDS” (Innovo Therapeutics, Inc., priority 2022, published 2024).

How the values were obtained:
Assay type in all cases: cell-based
Details in all cases: six hours
GSPT1 [1] = biological target: T1, GSPT1 (Homo sapiens, UniProt P15170+Q96SW2); assay: HiBiT degradation assay, GSPT1, Procedure B (Molt 4_hGSPT1_HiBIT cells); design: Molt 4_hGSPT1_HiBIT N-terminus tagged cells were generated using CRISPR technology; endogenous in cells; host or cells: Molt 4 cells, CRISPR-edited
Experimental: Molt 4_hGSPT1_HiBIT N-terminus tagged cells were generated using CRISPR technology. Cells were maintained in RPMI media (Thermo Fisher Scientific, Catalog #11875-093) containing 10% Fetal Bovine Serum (Thermo Fisher Scientific, Catalog #16140071) 1% Penicillin-Streptomycin (Thermo Fisher Scientific, Catalog #25200056). Cells were maintained at 37° C. in a 5% CO2 environment.
Compounds were spotted onto Cornin 384-Well, Cell Culture-Treated, Flat-Bottom, Low Flange Microplate (Fisher Scientific, Catalog #07-201-013) using a Tecan D300e digital dispenser. Ten-point dose response curves spanning from 10 μM to 0.005 μM with a 0.1% DMSO tolerance were used.
Cells were centrifuged for 5 minutes at 1200 RPMs. Cell culture media was aspirated off and cells were resuspended with RPMI+10% FBS. Cell density was determined using a Denovix CellDrop BF cell counter. Cell density was adjusted to 1×10^6 cells/ml. 40 μl of cells was added to compound treated tissue culture plates and incubated for six hours at 37° C. After six hours, cell culture plates were removed from tissue culture incubator and cooled to room temperature. 40 μl of Nano-GloHiBiT Lytic Detection Reagent (Promega, Catalog #N3040) was added to each well. Plates were placed on an orbital shaker (600 rpm) for 20 minutes. Luminescence was measured using an Envsion plate reader (Perkin Elmer). IC50 curves and Ymin were generated using a 4-parameter curve fit with GraphPad Prism software (Prism Corporation).
Results from the HiBiT assay (DC50 (nM) and Ymin (% remaining)) are shown below. All CK1α data was generated according to Procedure A. GSPT1 data for Examples 1-600, 603-620 and 703-705 was generated according to Procedure A. GSPT1 data for Examples 601, 621-702 and 706-735 was generated according to Procedure B.

CK1α = biological target: T2, CK1α (Homo sapiens, UniProt P48729+Q96SW2); assay: HiBiT degradation assay, CK1α, Procedure A
T2 construct: CSNK1A1-HiBit KI HEK293(LgBit) Cells; host or cells: HEK293(LgBit) knock-in cells
Outline: (§1)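 Six-hour treatment at 37° C, ten doses between 10 μM and 0.005 μM, then HiBiT lytic luminescence. Fitted DC50 and Ymin.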

GSPT1 [2] = biological target: T1, GSPT1; assay: HiBiT degradation assay, GSPT1, Procedure A; design: HiBit-GSPT1 KI HEK293(LgBit) Cells; host or cells: HEK293(LgBit) knock-in cells
Outline: as §1

T2 sequence (P48729 whole entry): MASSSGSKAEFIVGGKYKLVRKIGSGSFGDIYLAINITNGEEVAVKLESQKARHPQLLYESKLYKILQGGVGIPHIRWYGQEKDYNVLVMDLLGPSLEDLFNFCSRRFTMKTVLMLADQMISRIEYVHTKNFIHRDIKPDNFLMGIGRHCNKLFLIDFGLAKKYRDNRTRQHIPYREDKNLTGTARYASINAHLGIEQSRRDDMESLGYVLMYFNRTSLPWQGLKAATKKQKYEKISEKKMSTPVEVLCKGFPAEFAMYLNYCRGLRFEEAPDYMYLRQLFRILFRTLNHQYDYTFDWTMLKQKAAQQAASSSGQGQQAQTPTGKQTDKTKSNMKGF
T2 sequence (Q96SW2 whole entry): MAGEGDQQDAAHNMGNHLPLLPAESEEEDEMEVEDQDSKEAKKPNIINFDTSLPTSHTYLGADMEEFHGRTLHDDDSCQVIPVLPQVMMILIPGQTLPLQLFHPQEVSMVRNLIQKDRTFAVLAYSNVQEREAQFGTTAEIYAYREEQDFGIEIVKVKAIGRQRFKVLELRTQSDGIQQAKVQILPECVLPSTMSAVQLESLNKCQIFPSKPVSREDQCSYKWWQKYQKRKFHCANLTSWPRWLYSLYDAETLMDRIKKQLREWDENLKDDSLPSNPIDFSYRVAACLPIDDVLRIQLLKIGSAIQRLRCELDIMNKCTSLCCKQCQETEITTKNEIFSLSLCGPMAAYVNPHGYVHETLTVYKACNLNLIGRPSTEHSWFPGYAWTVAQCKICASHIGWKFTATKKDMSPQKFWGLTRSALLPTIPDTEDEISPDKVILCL
T2 sequence (Q16531 whole entry partner): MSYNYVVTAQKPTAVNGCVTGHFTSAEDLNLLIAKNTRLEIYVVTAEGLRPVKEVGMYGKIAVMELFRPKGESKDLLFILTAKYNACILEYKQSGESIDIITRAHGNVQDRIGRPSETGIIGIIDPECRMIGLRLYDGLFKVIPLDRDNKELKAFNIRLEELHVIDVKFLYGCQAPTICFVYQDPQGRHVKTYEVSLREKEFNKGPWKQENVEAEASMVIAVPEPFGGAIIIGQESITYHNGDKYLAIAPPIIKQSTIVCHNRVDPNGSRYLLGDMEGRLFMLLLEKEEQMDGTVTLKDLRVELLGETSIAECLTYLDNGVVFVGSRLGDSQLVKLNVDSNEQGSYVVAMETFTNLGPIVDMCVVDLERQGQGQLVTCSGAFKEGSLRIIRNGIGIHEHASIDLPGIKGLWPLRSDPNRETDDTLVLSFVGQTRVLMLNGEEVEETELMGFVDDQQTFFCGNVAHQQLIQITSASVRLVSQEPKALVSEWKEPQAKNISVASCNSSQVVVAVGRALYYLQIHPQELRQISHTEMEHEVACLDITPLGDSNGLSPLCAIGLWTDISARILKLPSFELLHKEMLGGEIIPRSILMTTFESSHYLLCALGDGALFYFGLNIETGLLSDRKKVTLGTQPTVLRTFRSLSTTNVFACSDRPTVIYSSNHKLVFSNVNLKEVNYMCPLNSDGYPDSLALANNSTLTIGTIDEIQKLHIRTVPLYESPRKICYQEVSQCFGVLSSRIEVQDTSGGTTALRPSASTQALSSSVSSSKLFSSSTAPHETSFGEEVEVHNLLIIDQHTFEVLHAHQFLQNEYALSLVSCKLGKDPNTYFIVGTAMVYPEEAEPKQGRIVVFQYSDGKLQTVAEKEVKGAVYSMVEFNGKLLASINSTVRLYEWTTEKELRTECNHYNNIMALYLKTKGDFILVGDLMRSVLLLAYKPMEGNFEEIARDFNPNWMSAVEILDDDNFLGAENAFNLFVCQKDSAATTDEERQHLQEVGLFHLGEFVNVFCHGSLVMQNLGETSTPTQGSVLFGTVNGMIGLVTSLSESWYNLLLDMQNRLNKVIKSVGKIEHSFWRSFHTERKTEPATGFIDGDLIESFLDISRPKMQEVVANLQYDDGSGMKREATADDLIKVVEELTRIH
T1 sequence (P15170 whole entry): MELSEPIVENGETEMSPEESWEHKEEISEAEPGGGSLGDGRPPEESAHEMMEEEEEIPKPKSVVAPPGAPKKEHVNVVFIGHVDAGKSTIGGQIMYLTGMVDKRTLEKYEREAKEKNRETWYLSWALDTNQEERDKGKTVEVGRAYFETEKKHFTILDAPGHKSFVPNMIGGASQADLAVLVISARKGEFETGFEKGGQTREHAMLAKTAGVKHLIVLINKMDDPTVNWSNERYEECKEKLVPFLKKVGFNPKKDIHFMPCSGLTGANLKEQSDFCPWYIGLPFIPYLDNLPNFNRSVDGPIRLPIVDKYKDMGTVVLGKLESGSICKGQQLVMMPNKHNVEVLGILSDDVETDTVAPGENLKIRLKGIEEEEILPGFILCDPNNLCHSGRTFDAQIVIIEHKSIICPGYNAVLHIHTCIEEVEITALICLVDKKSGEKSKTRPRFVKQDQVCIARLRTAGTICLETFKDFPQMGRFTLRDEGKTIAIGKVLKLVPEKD
T1 sequence (Q96SW2 whole entry): as the sequence (Q96SW2 whole entry) above
T1 sequence (Q16531 whole entry partner): as the sequence (Q16531 whole entry partner) above

Row | Structure (SMILES) | DC50 (GSPT1 [1]) | GSPT1 Ymin (GSPT1 [1]) | CK1α Ymin (CK1α) | DC50 (CK1α) | DC50 (GSPT1 [2]) | GSPT1 Ymin (GSPT1 [2])
1 | Cn1cc(-c2ccc3c(c2)CN(C2CCC(=O)NC2=O)C3=O)nc1[C@H]1CC[C@H](C(F)(F)F)CC1 (some centres unmarked) [Example 601, 3-(5-(1-methyl-2-((1r,4r)-4-(trifluoromethyl)cyclohexyl)-1H-imidazol-4-yl)-1-oxoisoindolin-2-yl)piperidine-2,6-dione] | ≥ 25 nM | E (E = >25-75% remaining) | E (E = >25-75% remaining) | ≥ 25 nM | – | –
2 | Cn1nc(-c2ccc3c(c2)CN(C2CCC(=O)NC2=O)C3=O)nc1N1CCOCC1 (centres unmarked) [Example 602, 3-(5-(1-methyl-5-morpholino-1H-1,2,4-triazol-3-yl)-1-oxoisoindolin-2-yl)piperidine-2,6-dione] | ≥ 25 nM | F (F = >75-100% remaining) | E (E = >25-75% remaining) | < 25 nM | – | –
3 | Cn1nc(-c2ccc3c(c2)CN(C2CCC(=O)NC2=O)C3=O)nc1N1CCC(C)(C)CC1 (centres unmarked) [Example 612, 3-(5-(5-(4,4-dimethylpiperidin-1-yl)-1-methyl-1H-1,2,4-triazol-3-yl)-1-oxoisoindolin-2-yl)piperidine-2,6-dione] | – | – | D (D = >10- 25% remaining) | < 25 nM | ≥ 25 nM | F (F = >75-100% remaining)
4 | Cn1nc(-c2ccc3c(c2)CN(C2CCC(=O)NC2=O)C3=O)nc1N1CCC(F)(F)CC1 (centres unmarked) [Example 613, 3-(5-(5-(4,4-difluoropiperidin-1-yl)-1-methyl-1H-1,2,4-triazol-3-yl)-1-oxoisoindolin-2-yl)piperidine-2,6-dione] | – | – | E (E = >25-75% remaining) | < 25 nM | ≥ 25 nM | F (F = >75-100% remaining)
5 | Cn1nc(-c2ccc3c(c2)CN(C2CCC(=O)NC2=O)C3=O)nc1[C@H]1CC[C@H](C)CC1 (some centres unmarked) [Example 616, 3-(5-(1-methyl-5-((1r,4r)-4-methylcyclohexyl)-1H-1,2,4-triazol-3-yl)-1-oxoisoindolin-2-yl)piperidine-2,6-dione] | – | – | E (E = >25-75% remaining) | ≥ 25 nM | ≥ 25 nM | F (F = >75-100% remaining)
6 | Cn1nc(-c2ccc3c(c2)CN(C2CCC(=O)NC2=O)C3=O)nc1[C@H]1CC[C@@H](C)CC1 (some centres unmarked) [Example 617, 3-(5-(1-methyl-5-((1s,4s)-4-methylcyclohexyl)-1H-1,2,4-triazol-3-yl)-1-oxoisoindolin-2-yl)piperidine-2,6-dione] | – | – | E (E = >25-75% remaining) | < 25 nM | < 25 nM | F (F = >75-100% remaining)
7 | Cc1cn(-c2ccc3c(c2)CN(C2CCC(=O)NC2=O)C3=O)nc1-c1ccccc1 (centres unmarked) [Example 618, 3-(5-(4-methyl-3-phenyl-1H-pyrazol-1-yl)-1-oxoisoindolin-2-yl)piperidine-2,6-dione] | – | – | D (D = >10- 25% remaining) | < 25 nM | ≥ 25 nM | F (F = >75-100% remaining)
8 | Cn1nc(-c2ccc3c(c2)CN(C2CCC(=O)NC2=O)C3=O)nc1-c1ccc(F)cc1 (centres unmarked) [Example 623, 3-(5-(5-(4-fluorophenyl)-1-methyl-1H-1,2,4-triazol-3-yl)-1-oxoisoindolin-2-yl)piperidine-2,6-dione] | < 25 nM | F (F = >75-100% remaining) | D (D = >10- 25% remaining) | < 25 nM | – | –
9 | Cn1cc(-c2ccc3c(c2)CN(C2CCC(=O)NC2=O)C3=O)nc1-c1ccccc1O (centres unmarked) [Example 624] | < 25 nM | F (F = >75-100% remaining) | C (C = 0-10% remaining) | < 25 nM | – | –
10 | COc1ccc(Cn2cc(-c3nc(-c4ccc5c(c4)CN(C4CCC(=O)NC4=O)C5=O)cn3C)cn2)cc1 (centres unmarked) [Example 625] | ≥ 25 nM | F (F = >75-100% remaining) | C (C = 0-10% remaining) | < 25 nM | – | –
11 | Cn1cc(-c2ccc3c(c2)CN(C2CCC(=O)NC2=O)C3=O)nc1-c1cccc(C(F)F)c1 (centres unmarked) [Example 626] | ≥ 25 nM | F (F = >75-100% remaining) | C (C = 0-10% remaining) | < 25 nM | – | –
12 | Cn1cc(-c2ccc3c(c2)CN(C2CCC(=O)NC2=O)C3=O)nc1-c1ccc(O)cc1 (centres unmarked) [Example 627] | ≥ 25 nM | E (E = >25-75% remaining) | C (C = 0-10% remaining) | < 25 nM | – | –
13 | Cn1cc(-c2ccc3c(c2)CN(C2CCC(=O)NC2=O)C3=O)nc1-c1ccc(F)c(F)c1 (centres unmarked) [Example 628] | ≥ 25 nM | F (F = >75-100% remaining) | D (D = >10- 25% remaining) | < 25 nM | – | –
14 | Cn1cc(-c2ccc3c(c2)CN(C2CCC(=O)NC2=O)C3=O)nc1-c1ccc(Cl)cc1 (centres unmarked) [Example 629] | ≥ 25 nM | F (F = >75-100% remaining) | C (C = 0-10% remaining) | < 25 nM | – | –
15 | Cn1cc(-c2ccc3c(c2)CN(C2CCC(=O)NC2=O)C3=O)nc1-c1ccncc1 (centres unmarked) [Example 630] | ≥ 25 nM | F (F = >75-100% remaining) | C (C = 0-10% remaining) | ≥ 25 nM | – | –
16 | Cn1cc(-c2ccc3c(c2)CN(C2CCC(=O)NC2=O)C3=O)nc1-c1cccc(F)c1 (centres unmarked) [Example 631] | ≥ 25 nM | F (F = >75-100% remaining) | C (C = 0-10% remaining) | < 25 nM | – | –
17 | Cn1cc(-c2ccc3c(c2)CN(C2CCC(=O)NC2=O)C3=O)nc1-c1cccc(C#N)c1 (centres unmarked) [Example 632] | ≥ 25 nM | F (F = >75-100% remaining) | D (D = >10- 25% remaining) | < 25 nM | – | –
18 | Cn1cc(-c2ccc3c(c2)CN(C2CCC(=O)NC2=O)C3=O)nc1-c1ccc(C#N)cc1 (centres unmarked) [Example 633] | < 25 nM | F (F = >75-100% remaining) | D (D = >10- 25% remaining) | < 25 nM | – | –
19 | Cn1cc(-c2ccc3c(c2)CN(C2CCC(=O)NC2=O)C3=O)nc1-c1ccccc1N (centres unmarked) [Example 634] | ≥ 25 nM | E (E = >25-75% remaining) | C (C = 0-10% remaining) | < 25 nM | – | –
20 | Cn1cc(-c2ccc3c(c2)CN(C2CCC(=O)NC2=O)C3=O)nc1-c1cccc(Cl)c1 (centres unmarked) [Example 635] | ≥ 25 nM | F (F = >75-100% remaining) | C (C = 0-10% remaining) | < 25 nM | – | –
21 | Cn1cc(-c2ccc3c(c2)CN(C2CCC(=O)NC2=O)C3=O)nc1-c1cccc(CO)c1 (centres unmarked) [Example 636] | ≥ 25 nM | F (F = >75-100% remaining) | C (C = 0-10% remaining) | ≥ 25 nM | – | –
22 | Cn1cc(-c2ccc3c(c2)CN(C2CCC(=O)NC2=O)C3=O)nc1-c1cccc(OC(F)(F)F)c1 (centres unmarked) [Example 637] | < 25 nM | F (F = >75-100% remaining) | D (D = >10- 25% remaining) | < 25 nM | – | –
23 | COc1cc(Cl)ccc1-c1nc(-c2ccc3c(c2)CN(C2CCC(=O)NC2=O)C3=O)cn1C (centres unmarked) [Example 638] | < 25 nM | F (F = >75-100% remaining) | C (C = 0-10% remaining) | < 25 nM | – | –
24 | Cn1cc(-c2ccc3c(c2)CN(C2CCC(=O)NC2=O)C3=O)nc1-c1ccccc1Cl (centres unmarked) [Example 639] | ≥ 25 nM | E (E = >25-75% remaining) | C (C = 0-10% remaining) | < 25 nM | – | –
25 | Cc1ccc(Cl)cc1-c1nc(-c2ccc3c(c2)CN(C2CCC(=O)NC2=O)C3=O)cn1C (centres unmarked) [Example 640] | ≥ 25 nM | F (F = >75-100% remaining) | C (C = 0-10% remaining) | < 25 nM | – | –
26 | O=C1CCC(N2Cc3cc(-c4cn(C5CC5)c(-c5ccccc5)n4)ccc3C2=O)C(=O)N1 (centres unmarked) [Example 704, 3-(5-(1-cyclopropyl-2-phenyl-1H-imidazol-4-yl)-1-oxoisoindolin-2-yl)piperidine-2,6-dione] | – | – | C (C = 0-10% remaining) | < 25 nM | ≥ 25 nM | F (F = >75-100% remaining)
